Assay results from patent US9302999B2, “Substituted triazoles as herbicides” (E. I. DU PONT DE NEMOURS AND COMPANY, priority 2012, dated 2016).

Key:
Assay type in all cases: in vivo
[1] = test system: pigweed (Amaranthus retroflexus); assay: Test C pre-/postemergence: pigweed
From the text: (§1) Seeds of plant species selected from blackgrass (Alopecurus myosuroides), bromegrass, downy (downy bromegrass, Bromus tectorum), foxtail, green (green foxtail, Setaria viridis), ryegrass, Italian (Italian ryegrass, Lolium multiflorum), winter wheat (Triticum aestivum), wild oat (Avena fatua), galium (catchweed bedstraw, Galium aparine), bermudagrass (Cynodon dactylon), surinam grass (Brachiaria decumbens), cocklebur (common cocklebur, Xanthium strumarium), corn (Zea mays), large crabgrass (Digitaria sanguinalis), woolly cupgrass (Eriochloa villosa), foxtail, giant (giant foxtail, Setaria faberii), goosegrass (Eleusine indica), johnsongrass (Sorghum halepense), kochia (Kochia scoparia), lambsquarters (Chenopodium album), morningglory (Ipomoea coccinea), nightshade (eastern black nightshade, Solanum ptycanthum), nutsedge, yellow (yellow nutsedge, Cyperus esculentus), pigweed (Amaranthus retroflexus), ragweed (common ragweed, Ambrosia elation), soybean (Glycine max), common (oilseed) sunflower (Helianthus annuus), Russian thistle (Salsola kali) and velvetleaf (Abutilon theophrasti) were planted into a blend of loam soil and sand and treated preemergence with test chemicals formulated in a non-phytotoxic solvent mixture which included a surfactant.
(§2) At the same time, plants selected from these crop and weed species and also barley (winter barley, Hordeum vulgare), canarygrass (Phalaris minor), chickweed (common chickweed, Stellaria media) windgrass (Apera spica-venti) and deadnettle (henbit deadnettle, Lamium amplexicaule) were planted in pots containing Redi-Earth® planting medium (Scotts Company, 14111 Scottslawn Road, Marysville, Ohio 43041) comprising spaghnum peat moss, vermiculite, wetting agent and starter nutrients and treated with postemergence applications of test chemicals formulated in the same manner. Plants ranged in height from 2 to 18 cm (1- to 4-leaf stage) for postemergence treatments.
(§3) Treated plants and controls were maintained in a greenhouse for 13 to 15 days, after which time all species were compared to controls and visually evaluated. Plant response ratings, summarized in Table C, are based on a scale of 0 to 100 where 0 is no effect and 100 is complete control. A dash (-) response means no test result.

[2] = test system: nutsedge, yellow (yellow nutsedge, Cyperus esculentus); assay: Test C pre-/postemergence: nutsedge, yellow
From the text: as §1, §2, §3

[3] = test system: foxtail, giant (giant foxtail, Setaria faberii); assay: Test C pre-/postemergence: foxtail, giant
From the text: as §1, §2, §3

wild oat (Avena fatua) = assay: Test C pre-/postemergence: wild oat
From the text: as §1, §2, §3

[4] = test system: pigweed (Amaranthus retroflexus); assay: Test A pre-/postemergence: pigweed
How it was run: (§4)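 Whole-plant greenhouse assay in loam/sand. Preemergence directed soil spray plus simultaneous postemergence spray (one- to two-leaf stage, 2–10 cm). Rated visually ~10 days later, 0 = no effect, 100 = complete control.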

[5] = test system: crabgrass, large (large crabgrass, Digitaria sanguinalis); assay: Test A pre-/postemergence: crabgrass, large
How it was run: as §4

[6] = test system: wheat (Triticum aestivum); assay: Test A pre-/postemergence: wheat
How it was run: as §4

[7] = test system: foxtail, giant (giant foxtail, Setaria faberii); assay: Test A pre-/postemergence: foxtail, giant; details: for Foxtail, Giant plant response rating: Postemergence; for Plant response rating, Foxtail, Giant: Preemergence
How it was run: as §4

soybean (Glycine max) = assay: Test C pre-/postemergence: soybean
From the text: as §1, §2, §3

[8] = test system: nightshade (eastern black nightshade, Solanum ptycanthum); assay: Test C pre-/postemergence: nightshade; details: Preemergence
From the text: as §1, §2, §3

[9] = Postemergence, 31 g ai/ha, scale 0 to 100 (0 no effect, 100 complete control)
[10] = Postemergence, 62 g ai/ha, scale 0 to 100 (0 no effect, 100 complete control)
[11] = Postemergence, 125 g ai/ha, scale 0 to 100, 0 no effect, 100 complete control
[12] = Postemergence, 250 g ai/ha, scale 0 to 100
[13] = Postemergence, 125 g ai/ha, 0 to 100 scale, 0 is no effect, 100 is complete control
[14] = Postemergence, 500 g ai/ha, visual rating on 0 to 100 scale (0 no effect, 100 complete control), approximately ten days
[15] = Preemergence, 125 g ai/ha, 0 to 100 scale (0 no effect, 100 complete control)
[16] = Preemergence, 500 g ai/ha, 0 to 100 scale, 0 is no effect, 100 is complete control
[17] = 125 g ai/ha, 0 to 100 scale, 0 is no effect, 100 is complete control
[18] = 500 g ai/ha, visual rating on 0 to 100 scale (0 no effect, 100 complete control), approximately ten days
[19] = Preemergence, 31 g ai/ha, scale of 0 to 100, 0 is no effect, 100 is complete control
[20] = Preemergence, 62 g ai/ha, scale of 0 to 100, 0 is no effect, 100 is complete control
[21] = Preemergence, 125 g ai/ha, scale 0 to 100, 0 no effect, 100 complete control
[22] = Preemergence, 250 g ai/ha, scale 0 to 100, 0 no effect, 100 complete control
[23] = Postemergence, 1000 g ai/ha, visual rating on 0 to 100 scale (0 no effect, 100 complete control), approximately ten days
[24] = Preemergence, 1000 g ai/ha, 0 to 100 scale, 0 is no effect, 100 is complete control
[25] = Preemergence, 125 g ai/ha, 0 to 100 scale where 0 is no effect and 100 is complete control
[26] = Preemergence, 500 g ai/ha, 0 to 100 scale (0 no effect, 100 complete control)

FC(F)(F)c1ccc(-n2nc(Cl)c(Cc3ccnc(C(F)(F)F)c3)n2)cc1 [Compound 28]
Plant response rating, Pigweed [1, 9]: 55 | Plant response rating, Pigweed [1, 10]: 55 | Plant response rating, Pigweed [1, 11]: 55 | Plant response rating, Pigweed [1, 12]: 98 | Plant response rating, Nutsedge, Yellow [2, 9]: 5 | Plant response rating, Nutsedge, Yellow [2, 10]: 5 | Plant response rating, Nutsedge, Yellow [2, 11]: 15 | Plant response rating, Nutsedge, Yellow [2, 12]: 25 | Plant response rating, Foxtail, Giant [3, 9]: 35 | Plant response rating, Foxtail, Giant [3, 10]: 35 | Plant response rating, Foxtail, Giant [3, 11]: 35 | Plant response rating, Foxtail, Giant [3, 12]: 50 | Plant response rating, Oat, Wild (wild oat (Avena fatua); [9]): 10 | Plant response rating, Oat, Wild (wild oat (Avena fatua); [10]): 15 | Plant response rating, Oat, Wild (wild oat (Avena fatua); [11]): 40 | Plant response rating, Oat, Wild (wild oat (Avena fatua); [12]): 70 | Pigweed plant response rating [4, 13]: 100 | Pigweed plant response rating [4, 14]: 100 | Plant response rating, Pigweed [4, 15]: 100 | Plant response rating, Pigweed [4, 16]: 100 | Crabgrass, Large plant response rating [5, 13]: 70 | Crabgrass, Large plant response rating [5, 14]: 90 | Plant response rating, Crabgrass, Large [5, 15]: 30 | Plant response rating, Crabgrass, Large [5, 16]: 90 | Wheat plant response rating [6, 13]: 40 | Wheat plant response rating [6, 14]: 50 | Plant response rating, Wheat [6, 15]: 0 | Plant response rating, Wheat [6, 16]: 20 | Foxtail, Giant plant response rating [7, 17]: 90 | Foxtail, Giant plant response rating [7, 18]: 90 | Plant response rating, Foxtail, Giant ([7]; 125 g ai/ha, 0 to 100 scale (0 no effect, 100 complete control)): 100 | Plant response rating, Foxtail, Giant ([7]; 500 g ai/ha, 0 to 100 scale, 0 is no effect, 100 is complete control): 100 | Plant response rating, Soybean (soybean (Glycine max); [9]): 30 | Plant response rating, Soybean (soybean (Glycine max); [10]): 35 | Plant response rating, Soybean (soybean (Glycine max); [11]): 35 | Plant response rating, Soybean (soybean (Glycine max); [12]): 60

Cc1nn(-c2ccc(C(F)(F)F)cn2)nc1Cc1cccc(C(F)(F)F)c1 [Compound 106]
Plant response rating, Pigweed [1, 9]: 95 | Plant response rating, Pigweed [1, 10]: 98 | Plant response rating, Pigweed [1, 11]: 98 | Plant response rating, Pigweed [1, 12]: 98 | Plant response rating, Pigweed [1, 19]: 85 | Plant response rating, Pigweed [1, 20]: 98 | Plant response rating, Pigweed [1, 21]: 100 | Plant response rating, Pigweed [1, 22]: 100 | Plant response rating, Nutsedge, Yellow [2, 9]: 0 | Plant response rating, Nutsedge, Yellow [2, 10]: 0 | Plant response rating, Nutsedge, Yellow [2, 11]: 0 | Plant response rating, Nutsedge, Yellow [2, 12]: 0 | Plant response rating, Nutsedge, Yellow [2, 19]: 0 | Plant response rating, Nutsedge, Yellow [2, 20]: 0 | Plant response rating, Nutsedge, Yellow [2, 21]: 0 | Plant response rating, Nutsedge, Yellow [2, 22]: 0 | Plant response rating, Nightshade ([8]; 31 g ai/ha, scale of 0 to 100, 0 is no effect, 100 is complete control): 0 | Plant response rating, Nightshade ([8]; 62 g ai/ha, scale of 0 to 100, 0 is no effect, 100 is complete control): 75 | Plant response rating, Nightshade ([8]; 125 g ai/ha, scale 0 to 100, 0 no effect, 100 complete control): 90 | Plant response rating, Nightshade ([8]; 250 g ai/ha, scale 0 to 100, 0 no effect, 100 complete control): 100 | Plant response rating, Foxtail, Giant [3, 9]: 40 | Plant response rating, Foxtail, Giant [3, 10]: 40 | Plant response rating, Foxtail, Giant [3, 11]: 55 | Plant response rating, Foxtail, Giant [3, 12]: 55 | Plant response rating, Foxtail, Giant [3, 19]: 65 | Plant response rating, Foxtail, Giant [3, 20]: 85 | Plant response rating, Foxtail, Giant [3, 21]: 100 | Plant response rating, Foxtail, Giant [3, 22]: 100 | Plant response rating, Oat, Wild (wild oat (Avena fatua); [9]): 10 | Plant response rating, Oat, Wild (wild oat (Avena fatua); [10]): 30 | Plant response rating, Oat, Wild (wild oat (Avena fatua); [11]): 45 | Plant response rating, Oat, Wild (wild oat (Avena fatua); [12]): 45 | Plant response rating, Oat, Wild (wild oat (Avena fatua); [19]): 10 | Plant response rating, Oat, Wild (wild oat (Avena fatua); [20]): 45 | Plant response rating, Oat, Wild (wild oat (Avena fatua); [21]): 70 | Plant response rating, Oat, Wild (wild oat (Avena fatua); [22]): 80 | Pigweed plant response rating [4, 23]: 100 | Pigweed plant response rating [4, 24]: 90 | Crabgrass, Large plant response rating [5, 23]: 80 | Crabgrass, Large plant response rating [5, 24]: 90 | Wheat plant response rating [6, 23]: 10 | Wheat plant response rating [6, 24]: 0 | Plant response rating, Soybean (soybean (Glycine max); [9]): 10 | Plant response rating, Soybean (soybean (Glycine max); [10]): 15 | Plant response rating, Soybean (soybean (Glycine max); [11]): 60 | Plant response rating, Soybean (soybean (Glycine max); [12]): 65 | Plant response rating, Soybean (soybean (Glycine max); [19]): 0 | Plant response rating, Soybean (soybean (Glycine max); [20]): 0 | Plant response rating, Soybean (soybean (Glycine max); [21]): 5 | Plant response rating, Soybean (soybean (Glycine max); [22]): 5

Cc1nn(-c2ccnc(Cl)c2)nc1Cc1ccnc(C(F)(F)F)c1 [Compound 141]
Plant response rating, Pigweed [1, 9]: 95 | Plant response rating, Pigweed [1, 10]: 95 | Plant response rating, Pigweed [1, 11]: 98 | Plant response rating, Pigweed [1, 12]: 98 | Plant response rating, Nutsedge, Yellow [2, 9]: 0 | Plant response rating, Nutsedge, Yellow [2, 10]: 10 | Plant response rating, Nutsedge, Yellow [2, 11]: 15 | Plant response rating, Nutsedge, Yellow [2, 12]: 15 | Plant response rating, Foxtail, Giant [3, 9]: 10 | Plant response rating, Foxtail, Giant [3, 10]: 20 | Plant response rating, Foxtail, Giant [3, 11]: 45 | Plant response rating, Foxtail, Giant [3, 12]: 80 | Plant response rating, Oat, Wild (wild oat (Avena fatua); [9]): 10 | Plant response rating, Oat, Wild (wild oat (Avena fatua); [10]): 15 | Plant response rating, Oat, Wild (wild oat (Avena fatua); [11]): 45 | Plant response rating, Oat, Wild (wild oat (Avena fatua); [12]): 70 | Plant response rating, Pigweed [4, 13]: 100 | Pigweed plant response rating [4, 14]: 100 | Plant response rating, Pigweed [4, 25]: 100 | Plant response rating, Pigweed [4, 26]: 100 | Crabgrass, Large plant response rating [5, 13]: 90 | Crabgrass, Large plant response rating [5, 14]: 90 | Plant response rating, Crabgrass, Large [5, 25]: 100 | Plant response rating, Crabgrass, Large [5, 26]: 100 | Plant response rating, Wheat [6, 13]: 20 | Wheat plant response rating [6, 14]: 50 | Plant response rating, Wheat [6, 25]: 0 | Plant response rating, Wheat [6, 26]: 20 | Foxtail, Giant plant response rating [7, 17]: 90 | Foxtail, Giant plant response rating [7, 18]: 90 | Plant response rating, Foxtail, Giant ([7]; 125 g ai/ha, 0 to 100 scale where 0 is no effect and 100 is complete control): 100 | Plant response rating, Foxtail, Giant ([7]; 500 g ai/ha, 0 to 100 scale (0 no effect, 100 complete control)): 100 | Plant response rating, Soybean (soybean (Glycine max); [9]): 40 | Plant response rating, Soybean (soybean (Glycine max); [10]): 55 | Plant response rating, Soybean (soybean (Glycine max); [11]): 55 | Plant response rating, Soybean (soybean (Glycine max); [12]): 65
